Experimental data from the NIST ThermoML archive (doi:10.1016/j.jct.2017.04.017).
Numbers after ± are expanded uncertainties.

Legend:
[1] = Molar enthalpy of transition or fusion; details: Crystal; DSC
[2] = Crystal; DTA

O=C(Nc1ccccc1-c1ccc(Cl)cc1)c1cccnc1Cl [Boscalid]
Molar enthalpy of transition or fusion [1]: 8.9 ± 0.335 kcal/mol | Normal melting temperature [2]: 146.73 ± 0.61 °C
